Here are results for 21 substances from patent US7205382B2, “Peptides, the production and use thereof for binding immunoglobulins” (Fresenius Medical Care Affina GmbH, priority 2000, dated 2007).

Holding throughout (format): binding
What all share (parameters): key: No binding of immunoglobulin for the defined peptide variant, detection negative: 0; Binding of immunoglobulin for the defined peptide variant, detection positive: +

The subject of experiment [1] is immunoglobulins in human plasma. As to the kind of experiment: Cellulose-immobilized 13-mer peptide variants incubated with human plasma, anti-human IgG-AP detection. The following applies: human plasma as sample, diluted 1:10,000 in blocking buffer, 3 h room temperature. The gist of the method:
(§1)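 SPOT-type 13-mer peptides on cellulose with a (βA)(βA) spacer, blocked in 5% saccharose/4% BSA in T-TBS pH 8.0. Incubated 3 h at RT with human IgG-Fc (1 μg/ml) or human serum/plasma (1:10,000), or with blocking buffer alone as the albumin specificity control. Bound IgG detected with AP-anti-human IgG (1.2 μg/ml) and NBT/BCIP colorimetric development at pH 9.5.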

The test system of another experiment is serum albumin. As to the kind of experiment: Cellulose-immobilized 13-mer peptide variants incubated with serum albumin (negative control), anti-human IgG-AP detection. The following applies: blocking buffer without addition, 3 h room temperature. In outline: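 Spot membrane, (βA)(βA) spacer; T-TBS pH 8.0 wash, block 5% saccharose/4% BSA. 3 h RT with IgG-Fc 1 μg/ml, serum 1:10,000, or block buffer only (specificity control). 3× wash, AP-anti-human IgG 1.2 μg/ml, NBT/BCIP in pH 9.5 buffer.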

The test system of another experiment is human IgG-Fc. As to the kind of experiment: Cellulose-immobilized 13-mer peptide variants incubated with human IgG-Fc, anti-human IgG-AP detection. The settings on record: IgG-Fc 1 μg/ml in blocking buffer, 3 h room temperature. The gist of the method: as §1

Bridge positions count the residues as written; N and C are the ends. Square brackets hold non-standard residues; d marks the D form. Ends that are not written are not given here. cellulose = not defined here; βAla = NCCC(=O)O

Consider “04H: cellulose-bound 13-mer variant DCAHHLGELVWCT-(βA)(βA) (DCAHHLGELVWCT[βAla][βAla]; disulfide 2-12 (inferred); also: cellulose-bound)”, for which the “Result for incubation with human plasma (immunoglobulin binding detection)” value (“Result for incubation with human plasma” for short) in experiment [1] is “+”. In addition, in the experiment on serum albumin, the “Result for incubation with serum albumin (immunoglobulin binding detection)” value (from here on “Result for incubation with serum albumin”) was 0. For the same substance, in the experiment on human IgG-Fc, the “Result for incubation with human IgG-Fc (immunoglobulin binding detection)” value (shortened to “Result for incubation with human IgG-Fc”) is “+”.
As to “04L: cellulose-bound 13-mer variant DCALHLGELVWCT-(βA)(βA) (DCALHLGELVWCT[βAla][βAla]; disulfide 2-12 (inferred); also: cellulose-bound)”, the “Result for incubation with human plasma” value in experiment [1] is on record as 0. The “Result for incubation with serum albumin” value with serum albumin was determined as 0. Moreover, the “Result for incubation with human IgG-Fc” value with human IgG-Fc is listed as “+”.
Turning to “08D: cellulose-bound 13-mer variant DCAWHLGDLVWCT-(βA)(βA) (DCAWHLGDLVWCT-{βAla-βAla-cellulose}; disulfide 2-12 (inferred); not fully specified (N-terminus); printed as DCAWHLGDLVWCT-(βA)(βA); reading uncertain)”, in experiment [1], the “Result for incubation with human plasma” value is “+”. Moreover, the “Result for incubation with serum albumin” value with serum albumin turned out to be 0. The “Result for incubation with human IgG-Fc” value in the experiment on human IgG-Fc is listed as “+”.
As to “11T: cellulose-bound 13-mer variant DCAWHLGELVTCT-(βA)(βA)”, the “Result for incubation with human plasma” value in experiment [1] was 0. Further, in the experiment on serum albumin, the “Result for incubation with serum albumin” value amounted to 0. Moreover, the “Result for incubation with human IgG-Fc” value with human IgG-Fc was 0.
Consider “02I: cellulose-bound 13-mer variant DIAWHLGELVWCT-(βA)(βA) (DIAWHLGELVWCT[βAla][βAla]; not fully specified; printed as DIAWHLGELVWCT-(βA)(βA); also: cellulose-bound)”, for which the “Result for incubation with human plasma” value in experiment [1] was determined as 0. In addition, in the experiment on serum albumin, the “Result for incubation with serum albumin” value turned out to be 0. The “Result for incubation with human IgG-Fc” value in the experiment on human IgG-Fc came to 0.
For the substance “11L: cellulose-bound 13-mer variant DCAWHLGELVLCT-(βA)(βA)”, in experiment [1], the “Result for incubation with human plasma” value was 0. In addition, the “Result for incubation with serum albumin” value in the experiment on serum albumin is given as 0. Besides, the “Result for incubation with human IgG-Fc” value with human IgG-Fc is 0.
Regarding “07Y: cellulose-bound 13-mer variant DCAWHLYELVWCT-(βA)(βA) (DCAWHLYELVWCT-{βAla-βAla-cellulose}; disulfide 2-12 (inferred); not fully specified (N-terminus); printed as DCAWHLYELVWCT-(βA)(βA); reading uncertain)”, the “Result for incubation with human plasma” value in experiment [1] is 0. Further, the “Result for incubation with serum albumin” value with serum albumin is reported as 0. Further, the “Result for incubation with human IgG-Fc” value in the experiment with human IgG-Fc came to 0.
For “01L: cellulose-bound 13-mer variant LCAWHLGELVWCT-(βA)(βA) (LCAWHLGELVWCT-{βAla-βAla-cellulose}; disulfide 2-12 (inferred); reading uncertain; also: printed as LCAWHLGELVWCT-(βA)(βA))”, in experiment [1], the “Result for incubation with human plasma” value is reported as 0. In addition, the “Result for incubation with serum albumin” value in the experiment on serum albumin stood at 0. Also, in the experiment on human IgG-Fc, the “Result for incubation with human IgG-Fc” value is recorded as “+”.
On to “11H: cellulose-bound 13-mer variant DCAWHLGELVHCT-(βA)(βA)”, for which the “Result for incubation with human plasma” value in experiment [1] is on record as 0. Further, in the experiment on serum albumin, the “Result for incubation with serum albumin” value is 0. The “Result for incubation with human IgG-Fc” value in the experiment on human IgG-Fc is given as “+”.
“11V: cellulose-bound 13-mer variant DCAWHLGELVVCT-(βA)(βA)”: the “Result for incubation with human plasma” value in experiment [1] came out at 0. Besides, in the experiment with serum albumin, the “Result for incubation with serum albumin” value worked out at 0. For the same substance, in the experiment on human IgG-Fc, the “Result for incubation with human IgG-Fc” value is given as 0.
Turning to “01F: cellulose-bound 13-mer variant FCAWHLGELVWCT-(βA)(βA) (FCAWHLGELVWCT-{βAla-βAla-cellulose}; disulfide 2-12 (inferred); reading uncertain; also: printed as FCAWHLGELVWCT-(βA)(βA))”, the “Result for incubation with human plasma” value in experiment [1] is 0. For the same substance, in the experiment on serum albumin, the “Result for incubation with serum albumin” value is reported as 0. Moreover, the “Result for incubation with human IgG-Fc” value in the experiment with human IgG-Fc was 0.
In the case of “12D: cellulose-bound 13-mer variant DCAWHLGELVWDT-(βA)(βA) (DCAWHLGELVWDT-{βAla-βAla-cellulose}; not fully specified; printed as DCAWHLGELVWDT-(βA)(βA); reading uncertain)”, the “Result for incubation with human plasma” value in experiment [1] amounted to 0. In addition, the “Result for incubation with serum albumin” value with serum albumin came out at 0. Further, the “Result for incubation with human IgG-Fc” value in the experiment on human IgG-Fc was found to be 0.
For the substance “02W: cellulose-bound 13-mer variant DWAWHLGELVWCT-(βA)(βA) (DWAWHLGELVWCT[βAla][βAla]; not fully specified; printed as DWAWHLGELVWCT-(βA)(βA); also: cellulose-bound)”, the “Result for incubation with human plasma” value in experiment [1] was determined as 0. In addition, in the experiment with serum albumin, the “Result for incubation with serum albumin” value is recorded as 0. Moreover, in the experiment on human IgG-Fc, the “Result for incubation with human IgG-Fc” value came out at 0.
Take “10E: cellulose-bound 13-mer variant DCAWHLGELEWCT-(βA)(βA) (DCAWHLGELEWCT-{βAla-βAla-cellulose}; disulfide 2-12 (inferred); reading uncertain; also: printed as DCAWHLGELEWCT-(βA)(βA))”: in experiment [1], the “Result for incubation with human plasma” value is listed as 0. The “Result for incubation with serum albumin” value in the experiment on serum albumin is on record as 0. Moreover, in the experiment on human IgG-Fc, the “Result for incubation with human IgG-Fc” value is 0.
Regarding “09F: cellulose-bound 13-mer variant DCAWHLGEFVWCT-(βA)(βA) (DCAWHLGEFVWCT-{βAla-βAla-cellulose}; disulfide 2-12 (inferred); reading uncertain; also: printed as DCAWHLGEFVWCT-(βA)(βA))”, the “Result for incubation with human plasma” value in experiment [1] worked out at 0. For the same substance, in the experiment with serum albumin, the “Result for incubation with serum albumin” value was found to be 0. Besides, the “Result for incubation with human IgG-Fc” value in the experiment on human IgG-Fc came to 0.
As for “10F: cellulose-bound 13-mer variant DCAWHLGELFWCT-(βA)(βA) (DCAWHLGELFWCT-{βAla-βAla-cellulose}; disulfide 2-12 (inferred); reading uncertain; also: printed as DCAWHLGELFWCT-(βA)(βA))”, the “Result for incubation with human plasma” value in experiment [1] stood at 0. For the same substance, the “Result for incubation with serum albumin” value with serum albumin amounted to 0. Also, the “Result for incubation with human IgG-Fc” value in the experiment on human IgG-Fc is listed as 0.
For the substance “03Y: cellulose-bound 13-mer variant DCYWHLGELVWCT-(βA)(βA) (DCYWHLGELVWCT-{βAla-βAla-cellulose}; disulfide 2-12 (inferred); reading uncertain; also: printed as DCYWHLGELVWCT-(βA)(βA))”, the “Result for incubation with human plasma” value in experiment [1] is 0. Further, the “Result for incubation with serum albumin” value in the experiment on serum albumin is recorded as 0. The “Result for incubation with human IgG-Fc” value in the experiment on human IgG-Fc worked out at 0.
“09V: cellulose-bound 13-mer variant DCAWHLGEVVWCT-(βA)(βA) (DCAWHLGEVVWCT-{βAla-βAla-cellulose}; disulfide 2-12 (inferred); reading uncertain; also: printed as DCAWHLGEVVWCT-(βA)(βA))”: in experiment [1], the “Result for incubation with human plasma” value stood at 0. For the same substance, the “Result for incubation with serum albumin” value in the experiment on serum albumin is listed as 0. For the same substance, the “Result for incubation with human IgG-Fc” value in the experiment on human IgG-Fc came to 0.
Consider “05V: cellulose-bound 13-mer variant DCAWVLGELVWCT-(βA)(βA) (disulfide 2-12 (inferred); not fully specified (N-terminus, C-terminus); printed as DCAWVLGELVWCT-(βA)(βA); also: cellulose-bound)”, for which, in experiment [1], the “Result for incubation with human plasma” value was 0. Moreover, the “Result for incubation with serum albumin” value in the experiment with serum albumin was found to be 0. Also, in the experiment on human IgG-Fc, the “Result for incubation with human IgG-Fc” value came out at 0.
As for “09D: cellulose-bound 13-mer variant DCAWHLGEDVWCT-(βA)(βA) (DCAWHLGEDVWCT-{βAla-βAla-cellulose}; disulfide 2-12 (inferred); reading uncertain; also: printed as DCAWHLGEDVWCT-(βA)(βA))”, the “Result for incubation with human plasma” value in experiment [1] is recorded as 0. In the experiment on serum albumin, the “Result for incubation with serum albumin” value was determined as 0. Moreover, the “Result for incubation with human IgG-Fc” value in the experiment with human IgG-Fc stood at 0.
For the substance “01M: cellulose-bound 13-mer variant MCAWHLGELVWCT-(βA)(βA) (MCAWHLGELVWCT-{βAla-βAla-cellulose}; disulfide 2-12 (inferred); reading uncertain; also: printed as MCAWHLGELVWCT-(βA)(βA))”, in experiment [1], the “Result for incubation with human plasma” value is reported as 0. In addition, in the experiment with serum albumin, the “Result for incubation with serum albumin” value is reported as 0. Further, the “Result for incubation with human IgG-Fc” value in the experiment on human IgG-Fc was “+”.
